# From patent publication US20130178493A1, “USE OF 14,15-DIHYDRO-20,21-DINOREBURNAMENIN-14-OL FOR THE TREATMENT AND/OR PREVENTION OF SERIOUS DEPRESSION AND SLEEP/WAKING CYCLE DISORDERS” (BIOCORTECH, priority 2004, published 2013)
# Assays:
# [1] = tested on: fibres containing noradrenaline in the prefrontal cortex; experiment: Density of noradrenaline-containing fibres in prefrontal cortex after sequential treatment; assay type: in vivo, Balb/c mice
# Method: (§1) The anatomical data presented in table 1 below were obtained three days after a single injection or after a sequential treatment of five injections at a rate of one injection every three days. Immunopositive cells for tyrosine hydroxylase (TH) and fibres containing noradrenaline were identified by immunocytochemistry in the examined brain areas. Sleep records were made on a group of ten Balb/c mice. The electroencephalogram for each animal was recorded continuously for five days for acquisition of basal data about the wake-sleep cycle. Five animals were then treated by five IP injections every three days starting from day 5 until day 17 of the experiment. The other five animals were injected with the excipient at the same time After the last injection, all mice were deprived of sleep for 6 hours and records went on for another two consecutive days to measure the total REM sleep recovery. The given BC19 dose is 20 mg/kg for each injection, in all these experiments.
# [2] = tested on: immunopositive neurones for TH in LC; experiment: Immunocytochemistry of tyrosine hydroxylase immunopositive neurones in locus caeruleus after IP injection; assay type: in vivo, Balb/c mice
# Method: as §1
# mice = conditions: mouse, in vivo, iv
# Method: Acute toxicity is determined on batches of 10 male and female mice, weighing from 20 to 22 g, fasting since the previous evening.
# The product is administered intravenously, in solution in physiological saline solution, to which a few drops of hydrochloric acid have been added (products to be tested are then in hydrochloric solution).
# Mortality is recorded daily for one week. Values of the lethal doses 50 (LD 50) were determined using the method given by Lichfield J. T. and Wilcoxon F. (J. Pharm. Exp. Therap. 96:99, 1949).
# [3] = tested on: cells expressing hypocretine in the hypothalamus; experiment: Number of hypocretine-expressing neurones in hypothalamus after IP injection; assay type: in vivo, Balb/c mice
# Balb/c mice = experiment: REM sleep recovery after sleep deprivation (electroencephalogram records); assay type: in vivo
# Method: as §1
# [4] = sacrifice 3 days after a single IP injection (20 mg/kg), Balb/c mice
smiles,measurement,setting,value
"OC1CC2CCCN3CCc4c(n1c1ccccc41)C23 (racemic) [BC19, 14,15-dihydro 20,21-dinoreburnamenin14-ol]",activity at 20 mg/kg,"[1]; Mus musculus, 72 h, sequential treatment: five IP injections, one every three days, 20 mg/kg, Balb/c mice, read-out: Density of fibres containing noradrenaline in the prefrontal cortex, % of controls",156%
same,Effect on noradrenergic innervation in the prefrontal cortex (in words),[1]; injected into Balb/c mice,restoring noradrenergic innervation in the prefrontal cortex
same,Density of fibres containing noradrenaline in the prefrontal cortex,"[1]; sequential treatment: five IP injections, one every three days, 20 mg/kg, Balb/c mice",0.050 ± 0.003 μm/μm^2
same,activity at 20 mg/kg,"[2]; Mus musculus, 72 h, sacrifice 3 days after a single IP injection (20 mg/kg), Balb/c mice, read-out: Total number of immunopositive neurones for TH in LC, % of controls",135%
same,Effect on noradrenergic phenotype in locus caeruleus (in words),[2]; injected into Balb/c mice,restoring the noradrenergic phenotype in a significant population of locus caeruleus
same,Total number of immunopositive neurones for TH in LC,[2]; [4],1228 ± 24
same,"Acute toxicity (mortality, LD 50)",mice,did not demonstrate any toxicity
same,Effect on hypocretine phenotype in neurones of the hypothalamus (in words),[3]; injected into Balb/c mice,restoring the hypocretine phenotype in a sub-population of neurones of the hypothalamus
same,Number of neurones in the posterior third of the group of cells expressing hypocretine in the hypothalamus,[3]; [4],671 ± 24
same,"Number of neurones in the posterior third of the group of cells expressing hypocretine in the hypothalamus, % of controls",[3]; [4],(121 ± 4%)
same,activity at 20 mg/kg,"Balb/c mice; Mus musculus, deprived mice (6 hours sleep deprivation), after five IP injections every three days, 20 mg/kg, Balb/c mice, read-out: Duration of REM sleep during the recovery period, % of controls without sleep deprivation",151 ± 11%
same,Duration of REM sleep during the recovery period,"Balb/c mice; deprived mice (6 hours sleep deprivation), after five IP injections every three days, 20 mg/kg, Balb/c mice",110 ± 8 mn
same,Effect on recovery of REM sleep after sleep privation (in words),Balb/c mice; injected into Balb/c mice,reversing the inability of these consanguine mice to recover REM
